Source: ChEMBL document CHEMBL1201862, “PubChem BioAssay data set” (2004)
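96-well plates; 48 h exposure; 5 concentrations. Endpoints by linear interpolation between flanking doses. Not reached: highest tested concentration assigned. The concentration for 50% growth inhibition is given as GI50.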 The source made the active and inactive calls. Cut-off read from the data, not from the text of the source: active = GI50 up to about 1.1 µM and inactive = higher.

Key:
Experiment in all cases: NCI anticancer screen, dose series, 48 h
[1] = system: BT-549
[2] = system: CAKI-1
[3] = system: SN12C
[4] = system: T47D
[5] = system: RPMI-8226
[6] = system: HT-29
[7] = system: HCT-15
[8] = system: NCI-H460
[9] = system: DU-145
[10] = system: SK-MEL-2
[11] = system: SK-OV-3
[12] = system: PC-3
[13] = system: HOP-92
[14] = system: COLO 205
[15] = system: OVCAR-8
[16] = system: MOLT-4
[17] = system: SK-MEL-5
[18] = system: TK-10
[19] = system: LOX IMVI
[20] = system: HCC 2998

Structure (SMILES)	GI50 [1]	GI50 [2]	GI50 [3]	GI50 [4]	GI50 [5]	GI50 [6]	GI50 [7] [µM]	GI50 [8]	GI50 [9]	GI50 [10]	GI50 [11]	GI50 [12]	GI50 [13]	GI50 [14]	GI50 [15]	GI50 [16]	GI50 [17]	GI50 [18]	GI50 [19]	GI50 [20]
COc1cc2c(c(O)c1OC)C(=O)C1CCC(=O)N1C2c1cccc2ccccc12 (stereo not given)	45 µM (inactive)	85.1 µM (inactive)	77.4 µM (inactive)	36.6 µM (inactive)	20.7 µM (inactive)	42.5 µM (inactive)	41.3	32.3 µM (inactive)	> 100 µM (inactive)	50.7 µM (inactive)	18.7 µM (inactive)	25.2 µM (inactive)	19.3 µM (inactive)	15.4 µM (inactive)	49.1 µM (inactive)	21.4 µM (inactive)	31.6 µM (inactive)	–	–	–
CN(C)C(=S)N/N=C\C=N/NC(=S)N(C)C	> 100 µM (inactive)	0.447 µM (active)	0.286 µM (active)	0.384 µM (active)	0.871 µM (active)	0.0625 µM (active)	0.0843	0.0231 µM (active)	0.155 µM (active)	0.361 µM (active)	0.344 µM (active)	0.182 µM (active)	1.65 µM (inactive)	0.246 µM (active)	0.175 µM (active)	–	0.349 µM (active)	2.53 µM (inactive)	0.321 µM (active)	–
O=c1oc2c(Cl)cc(Cl)cc2cc1C1=CSC2=NCCN12	26 µM (inactive)	52.2 µM (inactive)	51.8 µM (inactive)	36.5 µM (inactive)	58.9 µM (inactive)	61.2 µM (inactive)	44.7	57.5 µM (inactive)	40.1 µM (inactive)	> 100 µM (inactive)	> 100 µM (inactive)	42.1 µM (inactive)	28.6 µM (inactive)	> 100 µM (inactive)	63.7 µM (inactive)	39.3 µM (inactive)	27.4 µM (inactive)	73.1 µM (inactive)	59.8 µM (inactive)	–
Oc1cccc(/C=N/N=c2/[nH][nH]/c(=N/N=C/c3cccc(O)c3)c3ccccc23)c1	18.5 µM (inactive)	29.1 µM (inactive)	11.6 µM (inactive)	15.7 µM (inactive)	11.5 µM (inactive)	24.1 µM (inactive)	11	21.4 µM (inactive)	23.9 µM (inactive)	22.6 µM (inactive)	29.3 µM (inactive)	15.8 µM (inactive)	15.9 µM (inactive)	30.4 µM (inactive)	2.72 µM (inactive)	0.426 µM (active)	0.933 µM (active)	22.1 µM (inactive)	11.7 µM (inactive)	–
COC(=O)C(CCSC)NC(=O)CNC(=O)CSc1nnc(COc2ccc(Cl)cc2)n1-c1ccccc1 (stereo not given)	16.9 µM (inactive)	–	18.4 µM (inactive)	18.4 µM (inactive)	22.6 µM (inactive)	17.7 µM (inactive)	18.3	17.5 µM (inactive)	23 µM (inactive)	15.4 µM (inactive)	18.1 µM (inactive)	16.6 µM (inactive)	17.6 µM (inactive)	18.2 µM (inactive)	–	5.36 µM (inactive)	17.3 µM (inactive)	17.6 µM (inactive)	11.6 µM (inactive)	14 µM (inactive)
COc1ccc(C(=O)/C=C/c2ccc(Oc3cc(C(=O)/C=C/c4ccc(O)cc4)c(O)cc3OC)cc2)c(O)c1 [RHUSCHALCONE I]	10.4 µM (inactive)	4.1 µM (inactive)	3.74 µM (inactive)	4.99 µM (inactive)	1.85 µM (inactive)	2.23 µM (inactive)	2.43	4.33 µM (inactive)	5.96 µM (inactive)	8.57 µM (inactive)	9.86 µM (inactive)	4.84 µM (inactive)	13.9 µM (inactive)	4.34 µM (inactive)	3.45 µM (inactive)	2.52 µM (inactive)	4.02 µM (inactive)	4.06 µM (inactive)	2.27 µM (inactive)	–
